Laboratory results taken from patent US20240307415A1, “STEROID COMPOUND, AND PHARMACEUTICAL COMPOSITION THEREOF AND USE THEREOF” (JIANGSU SIMCERE PHARMACEUTICAL CO., LTD., priority 2021, published 2024).

How the values were obtained:
[1] = tested on: K562-GRE reporter gene; experiment: K562-GRE reporter gene activity; format: cell-based; conditions: 24 h, read-out: K562-GRE Reporter EC50
Experimental: To generate the parental K562-GRE cell line, K562 cells were seeded at 5×10^5 cells/well onto a 6-well plate (brand: Costar, Cat. No: 3516) containing 2 mL of complete medium (RPM1640, 10% FBS, penicillin-streptomycin) and cultured at 37° C. with 5% CO2 for 24 h. The next day, 3 μg of pNL2.2[NLucP/MMTV/Hygro-NANO] (Promega) and 3 μL of PLUS reagent (brand: Invitrogen, Cat. No: 11514-015) were diluted in 150 μL of Opti-MEM (brand: Gibco, Cat. No: 11058021) and incubated at room temperature for 5 min. The pNL2.2[NLucP/MMTV/Hygro-NANO] vector contains MMTV LTR (mouse mammary tumor virus long terminal repeat), which drives transcription of the luciferase reporter gene NanoLuc in response to activation of several nuclear receptors (e.g. glucocorticoid receptor and androgen receptor). After incubation, the diluted DNA solution was mixed with Lipofectamine LTX solution (brand: Invitrogen, Cat. No: 15338-100) (6 μL of Lipofectamine LTX+144 μL of Opti-MEM) in a 1:1 ratio, pre-incubated, and incubated at room temperature for 15 min to form a DNA-Lipofectamine LTX complex. After incubation, 300 μL of the DNA-Lipofectamine complex was added directly to the cell wells. The K562 cells were transfected at 37° C. with 5% CO2 for 24 h. After transfection, the cells were washed with 3 mL of PBS and selectively grown for two weeks with complete growth medium containing 125 μg/mL hygromycin B (brand: Invitrogen, Cat. No: 10687010). “K562-GRE (pNL2.2[NLucP/MMTV/Hygro-NANO])” cells were generated.
After mixing, the cells were cultured in an incubator at 37° C. for 24 h. After 24 h of incubation, an equal volume of 100 μL of Nano-Glo luciferase assay system (brand: Promega, Cat. No: N1120) was added to the cells, the mixture was reacted in a shaker at […] for 10 min, and the chemiluminescence values were detected using the PHERAstar instrument. The antibody binding curves were plotted using the logarithmic value of the antibody concentration as the abscissa and the corresponding chemiluminescence reading as the ordinate, and the EC50 value was calculated by four-parameter fitting (GraphPad Prism9).

[2] = molecular target: CYP2C9 (Homo sapiens (Human), UniProt P11712); experiment: Inhibition of CYP2C9 enzymatic activity in human liver microsomes; format: in vitro ADME; conditions: human liver microsome, substrate diclofenac, 5 min
Sequence of CYP2C9 (P11712 whole entry): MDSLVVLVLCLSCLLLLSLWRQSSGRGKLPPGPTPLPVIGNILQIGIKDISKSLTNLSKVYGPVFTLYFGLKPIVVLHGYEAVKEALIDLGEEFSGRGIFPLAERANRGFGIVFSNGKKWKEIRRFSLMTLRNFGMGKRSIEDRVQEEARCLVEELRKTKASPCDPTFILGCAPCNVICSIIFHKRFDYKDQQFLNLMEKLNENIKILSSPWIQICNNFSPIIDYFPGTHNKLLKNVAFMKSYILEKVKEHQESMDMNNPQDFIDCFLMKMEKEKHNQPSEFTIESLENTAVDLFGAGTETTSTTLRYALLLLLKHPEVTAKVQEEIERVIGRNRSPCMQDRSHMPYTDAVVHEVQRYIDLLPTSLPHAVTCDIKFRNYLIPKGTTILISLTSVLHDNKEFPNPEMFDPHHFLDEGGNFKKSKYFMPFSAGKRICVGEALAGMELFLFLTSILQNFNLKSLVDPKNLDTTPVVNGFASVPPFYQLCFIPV
Experimental: The inhibition of CYP2C9 and CYP2D6 activity by the compound of the present invention was determined using the following method.
• 1. Human liver microsome (Corning 452117) • 2. NADPH (Solarbio 705Y021) • 3. Positive substrates diclofenac (Sigma SLBV3438) and dextromethorphan (TRC 3-EDO-175-1) • 4. Positive inhibitors sulfaphenazole (D. Ehrenstorfer GmbH 109012) and quinidine (TCI WEODL-RE) • 5. AB Sciex Triple Quad 5500 liquid chromatography-mass spectrometry system
• 1. Preparation of 100 mM phosphate-buffered saline (PBS): 7.098 g Na2HPO4 was weighed. 500 mL pure water was added. The mixture was dissolved by sonication to give solution A. 3.400 g KH2PO4 was weighed. 250 mL pure water was added. The mixture was dissolved by sonication to give solution B. The solution A was placed in a stirrer, and the solution B was slowly added until the pH reached 7.4, so that the 100 mM PBS buffer was prepared. • 2. A 10 mM NADPH solution was prepared with a 100 mM PBS buffer. A 10 mM stock solution of the compound of the present invention was diluted with DMSO to give a compound working solution at a concentration of 200×(6000, 2000, 600, 200, 60, 20, and 0 μM). […]
The reduction of metabolite production in the treatment groups versus the control group was compared by the peak area ratios of the sample to the internal standard, and the IC50 value was calculated using Excel XLfit 5.3.1.3.

Compound: C[C@]12C=CC(=O)C=C1CC[C@@H]1[C@@H]2[C@@H](O)C[C@@]2(C)[C@H]1C[C@H]1O[C@@H](c3ccc(Cc4cc(N)c5c(c4)CCO5)cc3)O[C@]12C(=O)CO [Compound 009, (6aR,6bS,7S,8aS,8bS,10R,11aR,12aS,12bS)-10-(4-((7-amino-2,3-dihydrobenzofuran-5-yl)methyl)phenyl)-7-hydroxy-8b-(2-hydroxyacetyl)-6a,8a-dimethyl-6a,6b,7,8,8a,8b,11a,12,12a,12b-decahydro-1H-naphtho[2′,1′:4,5]indeno[1,2-d][1,3]dioxolan-4(2H)-one]
- EC50 [1]: 0.00576 µM
- IC50 [2]: 7.2 µM
